11 compounds from patent US10611740B2, “Aryl dihydro-2H-benzo[b][1,4]oxazine sulfonamide and related compounds for use as agonists of RORγ and the treatment of disease” (Lycera Corporation, priority 2015, dated 2020) can be followed below.

The target of one assay is T1, RORγ-LBD (Homo sapiens, UniProt P51449).
T1 construct: made in house; host or cells: SF9 cells (baculovirus)
T1 sequence (P51449 269-508 limits assumed): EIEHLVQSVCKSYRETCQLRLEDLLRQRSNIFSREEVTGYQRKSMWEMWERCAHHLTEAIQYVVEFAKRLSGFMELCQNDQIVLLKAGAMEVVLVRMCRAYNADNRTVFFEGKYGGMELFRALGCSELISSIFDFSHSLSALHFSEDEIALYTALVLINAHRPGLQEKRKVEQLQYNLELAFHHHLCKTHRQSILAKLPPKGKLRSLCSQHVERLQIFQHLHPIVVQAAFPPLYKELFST
Description: RORγ-Ligand Binding Domain (LBD) TR-FRET Assay.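 For TR-FRET Assay Max Response: 665/615 nm ratio relative to signal without ursolic acid or compound set at 100.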 It counts as biochemical. Put shortly: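 SF9 lysate containing His-RORγ-LBD, ~3 nM final; coactivator peptide biotin-SRC1 LXXLL, 200 nM final; ursolic acid 2 μM final; DMSO 1% final; Tris pH 7.0 buffer with KCl, EDTA, DTT, BSA. TR-FRET format.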

The target of another assay is T2, Gal4-RORγ-LBD (Homo sapiens, UniProt P51449).
T2 construct: expressed in transfected cells; host or cells: HEK-293 cells (pcDNA3.1neo plasmid)
T2 sequence (P51449 269-508 limits assumed): T1 sequence (P51449 269-508 limits assumed)
Description: Gal4-RORγ Luciferase Reporter Assay in HEK-293T Cells. In kind it is cell-based. The conditions noted are these: HEK-293 cells. Put shortly: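 In transfected HEK-293 cells (Gal4-RORγ-LBD, Gal4-luciferase), test agents with 2 μM ursolic acid were incubated overnight at 37 °C before luminescent detection. Values are relative to the ursolic-acid-free, compound-free signal (100).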

The mark [1] stands for this setting: luciferase reporter, with 2 μM ursolic acid.

Take `CC(C)(O)C(=O)NC[C@H]1CN(S(=O)(=O)c2cccc(C(F)(F)F)c2)c2cc(-c3cc(F)ccc3F)ccc2O1` [Compound 17, (S)—N-((6-(2,5-difluorophenyl)-4-((3-(trifluoromethyl)phenyl)sulfonyl)-3,4-dihydro-2H-benzo[b][1,4]oxazin-2-yl)methyl)-2-hydroxy-2-methylpropanamide]: on RORγ-LBD, the EC50 was below 500 nM and the “TR-FRET Assay Max Response” value is “**** (The symbol “****” indicates a value greater than 200)”. Besides, on Gal4-RORγ-LBD (2 μM ursolic acid), the EC50 is below 500 nM and the “Gal4-RORγ Assay Max Response” value is “** (The symbol “**” indicates a value in the range of greater than 90 to 150)”.

As to `COc1cccc(-c2ccc3c(c2)N(S(=O)(=O)c2cccc(C(F)(F)F)c2)C[C@H](CCCC(=O)O)O3)c1` [Compound 21B, (S)-4-(6-(3-methoxyphenyl)-4-((3-(trifluoromethyl)phenyl)sulfonyl)-3,4-dihydro-2H-benzo[b][1,4]-oxazin-2-yl)butanoic acid], on RORγ-LBD, the EC50 is below 500 nM and the “TR-FRET Assay Max Response” value is listed as “**** (The symbol “****” indicates a value greater than 200)”. Further, on Gal4-RORγ-LBD (setting [1]), the EC50 was below 500 nM and the “Gal4-RORγ Assay Max Response” value was “** (The symbol “**” indicates a value in the range of greater than 90 to 150)”.

As for `C[C@@](O)(C(=O)NC[C@H]1CN(S(=O)(=O)c2cccc(C(F)(F)F)c2)c2cc(-c3cc(F)ccc3F)ccc2O1)C(F)(F)F` [Compound 30V, (R)-N-(((S)-6-(2,5-difluoro-phenyl)-4-((3-(trifluoromethyl)-phenyl)sulfonyl)-3,4-dihydro-2H-benzo[b][1,4]oxazin-2-yl)methyl)-3,3,3-trifluoro-2-hydroxy-2-methylpropanamide], at RORγ-LBD, the EC50 was below 500 nM and the “TR-FRET Assay Max Response” value is “**** (The symbol “****” indicates a value greater than 200)”. For the same compound, on Gal4-RORγ-LBD (setting [1]), the half-maximal effective concentration (EC50) was below 500 nM and the “Gal4-RORγ Assay Max Response” value is on record as “* (The symbol “*” indicates a value in the range of 25 to 90)”.

Consider `O=C(O)[C@H]1C[C@H](C[C@H]2CN(S(=O)(=O)c3cccc(C(F)(F)F)c3)c3cc(-c4cc(F)cc(F)c4Cl)ccc3O2)C1` [Compound 60B, (1S,3r)-3-(((S)-6-(2-chloro-3,5-difluorophenyl)-4-((3-(trifluoro-methyl)phenyl)sulfonyl)-3,4-dihydro-2H-benzo[b][1,4]oxazin-2-yl)methyl)cyclobutane-1-carboxylic acid], for which, on RORγ-LBD, the EC50 was below 500 nM and the “TR-FRET Assay Max Response” value is “*** (The symbol “***” indicates a value in the range of greater than 150 to 200)”. In addition, on Gal4-RORγ-LBD (2 μM ursolic acid), the half-maximal effective concentration (EC50) is below 500 nM and the “Gal4-RORγ Assay Max Response” value is recorded as “** (The symbol “**” indicates a value in the range of greater than 90 to 150)”.

Regarding `COc1cc(S(=O)(=O)N2C[C@H](CCC(C)(C)C(=O)O)Oc3ccc(-c4cccc(C(F)(F)F)n4)cc32)ccc1F` [Compound 32AJ, (S)-4-(4-((4-fluoro-3-methoxy-phenyl)sulfonyl)-6-(6-(trifluoro-methyl)pyridin-2-yl)-3,4-dihydro-2H-benzo[b][1,4]oxazin-2-yl)-2,2-dimethylbutanoic acid], on RORγ-LBD, the EC50 is below 500 nM and the “TR-FRET Assay Max Response” value was “** (The symbol “**” indicates a value in the range of greater than 90 to 150)”. Also, on Gal4-RORγ-LBD (2 μM ursolic acid), the EC50 was below 500 nM and the “Gal4-RORγ Assay Max Response” value is given as “** (The symbol “**” indicates a value in the range of greater than 90 to 150)”.

`COc1ccc(F)c(-c2ccc3c(c2)N(S(=O)(=O)c2cccc(C(F)(F)F)c2)C[C@H](CC(C)(C)C(=O)O)O3)c1F` [Compound 32BK, (S)-3-(6-(2,6-difluoro-3-methoxyphenyl)-4-((3-(trifluoromethyl)phenyl)sulfonyl)-3,4-dihydro-2H-benzo[b][1,4]oxazin-2-yl)-2,2-dimethylpropanoic acid]: on RORγ-LBD, the EC50 was below 500 nM and the “TR-FRET Assay Max Response” value was “*** (The symbol “***” indicates a value in the range of greater than 150 to 200)”. In addition, at Gal4-RORγ-LBD (2 μM ursolic acid), the EC50 is below 500 nM and the “Gal4-RORγ Assay Max Response” value is listed as “** (The symbol “**” indicates a value in the range of greater than 90 to 150)”.

Take `CC(C)(C)OC(=O)NCC[C@H]1CN(S(=O)(=O)c2cccc(C(F)(F)F)c2)c2cc(-c3cc(F)ccc3F)ccc2O1` [Compound 12, tert-butyl (S)-(2-(6-(2,5-difluorophenyl)-4-((3-(trifluoromethyl)phenyl)sulfonyl)-3,4-dihydro-2H-benzo[b][1,4]oxazin-2-yl)ethyl)carbamate]: on RORγ-LBD, the concentration for a half-maximal effect (EC50) was below 500 nM and the “TR-FRET Assay Max Response” value is given as “**** (The symbol “****” indicates a value greater than 200)”. In addition, at Gal4-RORγ-LBD (setting [1]), the EC50 was below 500 nM and the “Gal4-RORγ Assay Max Response” value is given as “* (The symbol “*” indicates a value in the range of 25 to 90)”.

On to `Cc1c(F)cc(-c2ccc3c(c2)N(S(=O)(=O)c2cccc(C(F)(F)F)c2)C[C@H](CC(C)C(=O)O)O3)c(Cl)c1F` (stereo partly drawn) [Compound 46A, 3-((S)-6-(2-chloro-3,5-difluoro-4-methylphenyl)-4-((3-(trifluoro-methyl)phenyl)sulfonyl)-3,4-dihydro-2H-benzo[b][1,4]oxazin-2-yl)-2-methylpropanoic acid], for which, on RORγ-LBD, the concentration for a half-maximal effect (EC50) is below 500 nM and the “TR-FRET Assay Max Response” value is “*** (The symbol “***” indicates a value in the range of greater than 150 to 200)”. Also, at Gal4-RORγ-LBD (setting [1]), the half-maximal effective concentration (EC50) fell in the range of 500 to 5000 nM and the “Gal4-RORγ Assay Max Response” value was “** (The symbol “**” indicates a value in the range of greater than 90 to 150)”.

As to `Cc1ccc(C)c(-c2ccc3c(c2)N(S(=O)(=O)c2cccc(C(F)(F)F)c2)C[C@H](CC(C)(C)C(=O)O)O3)c1` [Compound 32AT, (S)-3-(6-(2,5-dimethylphenyl)-4-((3-(trifluoromethyl)phenyl)-sulfonyl)-3,4-dihydro-2H-benzo[b][1,4]oxazin-2-yl)-2,2-dimethylpropanoic acid], at RORγ-LBD, the EC50 is below 500 nM and the “TR-FRET Assay Max Response” value is on record as “** (The symbol “**” indicates a value in the range of greater than 90 to 150)”. At Gal4-RORγ-LBD (2 μM ursolic acid), the 50% effective concentration (EC50) was below 500 nM and the “Gal4-RORγ Assay Max Response” value is recorded as “** (The symbol “**” indicates a value in the range of greater than 90 to 150)”.

As for `Cc1noc(C)c1-c1ccc2c(c1)N(S(=O)(=O)c1cccc(C(F)(F)F)c1)C[C@H](CCC(=O)O)O2` [Compound 2BO, (S)-3-(6-(3,5-dimethylisoxazol-4-yl)-4-((3-(trifluoromethyl)-phenyl)sulfonyl)-3,4-dihydro-2H-benzo[b][1,4]oxazin-2-yl)propanoic acid], the EC50 at RORγ-LBD and on Gal4-RORγ-LBD (setting [1]) was above 10000 nM in each case.

Consider `CC(C)(F)C(=O)NC[C@H]1CN(S(=O)(=O)c2cccc(C(F)(F)F)c2)c2cc(-c3cc(F)ccc3F)ccc2O1` [Compound 30BE, (S)-N-((6-(2,5-difluorophenyl)-4-((3-(trifluoromethyl)phenyl)-sulfonyl)-3,4-dihydro-2H-benzo[b][1,4]oxazin-2-yl)methyl)-2-fluoro-2-methylpropanamide], for which, at RORγ-LBD, the 50% effective concentration (EC50) was below 500 nM and the “TR-FRET Assay Max Response” value is recorded as “*** (The symbol “***” indicates a value in the range of greater than 150 to 200)”. For the same compound, on Gal4-RORγ-LBD (setting [1]), the half-maximal effective concentration (EC50) was below 500 nM and the “Gal4-RORγ Assay Max Response” value is “* (The symbol “*” indicates a value in the range of 25 to 90)”.
